Laboratory results reported in patent US6555323B2, “Assay for ABCA1” (Pfizer Inc., priority 2000, dated 2003).

Legend:
ABCA1 [1] = experiment: Cellular cholesterol efflux to apo-AI from [3H]-cholesterol-labeled J774 macrophages; type: cell-based, mouse; conditions: 16 hours pretreatment, J774 cells, apo-AI 20 μg/ml acceptor
Experimental: (§1) Stock cultures of J774 mouse macrophage cell line were grown in RPMI 1640 supplemented with 10% FBS and 50 μg/ml gentamicin at 37° C. in a humidified atmosphere containing 95% air and 5% CO2.
(§2) Cells were seeded in 96 wells (96-well plate, 0.15 ml/well) using 50,000 to 100,000 cells per well and grown in RPMI 1640-10% FBS and 0.5% gentamicin at37° C. for 72 hours to achieve 80-90% confluence. Radiolabeled cholesterol ([1,2-^3H] cholesterol, New England Nuclear) was added to the cells by adding a tracer amount (1-5 μCi/well in a final concentration of 0.1% ethanol) to FBS, which was then diluted to a final concentration of 1% in RPMI. An acyl-CoA cholesterol acyltransferase (ACAT) inhibitor (decanamide, 2-(hexylthio)-N-[6-methyl-2,4-bis(methylthio)-3-pyridinyl]-,(2S)-(9Cl) at 2 μg/ml) was added to the labeling medium. […] Cells were grown in the presence of the radiolabel for two additional days to obtain confluent monolayers. For experiments where cells are enriched in free cholesterol, acetylated LDL (100 μg of protein/ml) was included in the labeling mixture. Following the labeling period, cells were extensively washed using MEM-Hepes medium supplemented with 0.5% gentamicin, and incubated with either cpt-cAMP (positive control) at 0.3 mM or test compounds (varying concentrations may be used, although […] was selected for the present experiment) for an additional 16 hours.
At the end of the pretreatment period with cpt-cAMP or test compounds, cells were extensively washed with MEM-Hepes medium containing gentamicin and incubated in RPMI 1640 medium containing the cholesterol acceptor apo-AI at a final concentration of 20 μg/ml. Parallel monolayers of control or treated cells were also incubated with acceptor-free medium to determine background, non-acceptor mediated cholesterol efflux. Cellular cholesterol efflux was quantified by measuring the release of cellular [^3H]-cholesterol into the medium as a function of time. An aliquot of the incubation medium was filtered using a 0.45 micron Millipore multiscreen plate to remove any floating cells and then counted using a Wallac Microbeta Counter (Perkin-Elmer Life Sciences, Turku, Finland).
The amount of radiolabeled cholesterol released from the cells (% efflux) is determined by the amount of radioactivity present in the incubation medium divided by the radioactivity at time zero (T0). Radtio activty at time zero is calculated as the amount of radioactivity in the cells as determined by isopropanol extraction at the end of the treatment time.

ABCA1 mRNA = ABCA1 mRNA level in treated cells; type: cell-based, mouse
Experimental: In the case where the analysis of ABCA1 expression is required, total RNA may be isolated (e.g., by the method according to Chomczynski et al., N. Anal. Biochem., 162:156 (1987)) and ABCA1 mRNA levels determined by standard techniques such as Northern blotting, slot blot hybridization, or Ribonuclease protection assays using ABCA1 specific mRNA probes.
as §1, §2

ABCA1 [2] = experiment: Cellular cholesterol efflux to apo-AI from [3H]-cholesterol-labeled J774 macrophages; type: cell-based, mouse; conditions: 1 μM, 16 hours pretreatment, J774 cells, apo-AI 20 μg/ml acceptor
[3] = biological target: T1, acyl-CoA cholesterol acyltransferase (ACAT) (Mus musculus, UniProt Q61263); experiment: ACAT inhibition in labeling medium of J774 cells; type: cell-based; conditions: 2 μg/ml in labeling medium
T1 construct: endogenous in cells; host or cells: J774 mouse macrophage cell line
T1 sequence (Q61263 1-540): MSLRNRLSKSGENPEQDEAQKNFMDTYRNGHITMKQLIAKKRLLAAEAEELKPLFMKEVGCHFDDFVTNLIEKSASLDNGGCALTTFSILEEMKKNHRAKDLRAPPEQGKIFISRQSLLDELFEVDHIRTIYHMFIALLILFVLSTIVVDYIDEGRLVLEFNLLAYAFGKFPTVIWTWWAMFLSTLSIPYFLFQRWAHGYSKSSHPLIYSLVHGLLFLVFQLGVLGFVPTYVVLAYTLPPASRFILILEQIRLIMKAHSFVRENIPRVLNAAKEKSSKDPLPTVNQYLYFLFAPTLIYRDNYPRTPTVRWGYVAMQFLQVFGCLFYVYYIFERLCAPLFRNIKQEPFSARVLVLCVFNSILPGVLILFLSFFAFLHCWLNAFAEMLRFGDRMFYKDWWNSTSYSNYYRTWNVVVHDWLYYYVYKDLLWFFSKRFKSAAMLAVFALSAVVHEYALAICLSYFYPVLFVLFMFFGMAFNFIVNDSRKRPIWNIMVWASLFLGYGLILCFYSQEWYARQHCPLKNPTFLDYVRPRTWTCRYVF
Experimental: as §2

Nc1ncnc2c1nc(Sc1ccc(Cl)cc1)n2[C@@H]1O[C@@H]2COP(=O)(O)O[C@H]2[C@H]1O [cpt-cAMP, reference compound]
% of control (cholesterol efflux) (ABCA1 [1]; 0.3 mM): 425 % of control | % of control mRNA (ABCA1 mRNA; 0.3 mM): 1600 % of control

Cc1nnc2c(N3CCC4(CC3)C(=O)NCN4c3ccccc3)nc(-c3ccc(O)cc3)cn12
% of control (cholesterol efflux) (ABCA1 [1]; 5 μM): 106 % of control

Cc1nnc2c(N3CCC4(CC3)C(=O)NCN4c3ccccc3)nc(-c3ccccc3)cn12
% of control (cholesterol efflux) (ABCA1 [1]; 5 μM): 109 % of control

CCCCC[C@H](O)/C=C/[C@H]1[C@H](O)CC(=O)[C@@H]1CCCCCCC(=O)O [Prostaglandin E1, reference compound]
% of control (cholesterol efflux) (ABCA1 [2]): 210 % of control | % of control mRNA (ABCA1 mRNA; 1 μM): 1420 % of control

CN(c1ccc(C(O)(C(F)(F)F)C(F)(F)F)cc1)S(=O)(=O)c1ccccc1[N+](=O)[O-]
% of control (cholesterol efflux) (ABCA1 [1]; 5 μM): 185 % of control | % of control mRNA (ABCA1 mRNA; 5 μM): 160 % of control

Cc1nnc2c(N3CCC4(CC3)C(=O)NCN4c3ccccc3)nc(-c3ccc4c(c3)OCO4)cn12
% of control (cholesterol efflux) (ABCA1 [1]; 5 μM): 82 % of control

Cc1nnc2n1-c1sccc1C(c1ccccc1)=NC2
% of control (cholesterol efflux) (ABCA1 [1]; 5 μM): 102 % of control

CCCCCCCC[C@H](SCCCCCC)C(=O)Nc1c(SC)cc(C)nc1SC [decanamide, 2-(hexylthio)-N-[6-methyl-2,4-bis(methylthio)-3-pyridinyl]-,(2S)-(9Cl)]
ACAT activity [3]: completely inhibited

COc1ccc(-c2cn3c(C)nnc3c(N3CCC4(CC3)C(=O)NCN4c3ccccc3)n2)cc1OC
% of control (cholesterol efflux) (ABCA1 [1]; 5 μM): 111 % of control

COc1ccc(-c2cn3c(C)nnc3c(N3CCC(C)(N(C)c4cccc(F)c4)CC3)n2)cc1
% of control (cholesterol efflux) (ABCA1 [1]; 5 μM): 94 % of control

COc1ccc(-c2cn3c(C)nnc3c(N3CCC4(CC3)C(=O)NCN4c3ccccc3)n2)cc1
% of control (cholesterol efflux) (ABCA1 [1]; 5 μM): 101 % of control

O=S(=O)(c1ccccc1)N(CC(F)(F)F)c1ccc(C(O)(C(F)(F)F)C(F)(F)F)cc1
% of control (cholesterol efflux) (ABCA1 [1]; 5 μM): 177 % of control | % of control mRNA (ABCA1 mRNA; 5 μM): 680 % of control

COc1cc(-c2cn3c(C)nnc3c(N3CCC4(CC3)C(=O)NCN4c3ccccc3)n2)cc(OC)c1OC
% of control (cholesterol efflux) (ABCA1 [1]; 5 μM): 95 % of control
